Converted amounts (≈) assume the structure as drawn. Like-named read-outs stand apart in the source and are kept apart here.
Tests used:
[1] = pKa of alpha blockers (Table 1); format: physicochemical
From the text: However, the solubility improvement largely depends on the choice of solvent, any specific common ion interaction and the size and polarity of the counterion. Often, salts prepared from strong acids are freely soluble in water. […] Suitable alkane- or arenesulfonic acid anions include […], tosylate (para-toluenesulfonate), mesylate (methanesulfonate), napsylate (1-napthalene-2-sulfonate), besylate (benzene sulfonate) and […].

[2] = tested on: guinea pig prostrate, urethra, and vesical triangle; details: Honda et al.; cited from earlier work
[3] = tested on: rabbit prostrate, urethra, and vesical triangle; details: Honda et al.; cited from earlier work
[4] = tested on: human urethra and vesical triangle; details: Honda et al.; cited from earlier work
[5] = tested on: rabbit urethral ring tissues; details: in vitro; cited from earlier work
rabbit trigone = details: in vitro; cited from earlier work
[6] = in vivo; cited from earlier work
[7] = Solubility of Rec 15/2739 free base in various vehicles (Table 2); format: physicochemical
Method: Table 2 provides the solubility of the free base forms of the alpha blocker Rec 15/2739 in various vehicles. Solubility of free base is indicated as μg per ml of medium. PBS indicates phosphate buffered saline (20 mM phosphate and 0.9% NaCl).

[8] = tested on: mammalian lower urinary tract; details: in vivo; cited from earlier work
rat bladder strip = details: WO93/17007; cited from earlier work
[9] = tested on: alpha1 adrenergic receptors; details: WO93/17007; cited from earlier work
[10] = cited from earlier work
[11] = tested on: alpha1 A and alpha1 B adrenoceptors; details: Michel et al.; cited from earlier work
[12] = tested on: smooth muscle originating from the trigone muscle at the base of the bladder; details: trigone smooth muscle preparations; cited from earlier work

With `COc1cc2nc(N3CCN(C(=O)C4CCCO4)CC3)nc(N)c2cc1OC` (stereo not drawn) [Terazosin, reference compound] as the molecule, how does the pKa [1] read?
Its pKa is 7.1.

With `CCOc1ccccc1OCCNC(C)Cc1ccc(OC)c(S(N)(=O)=O)c1` (stereo not drawn) [Tamsulosin, 5-2-2-(o-Ethoxyphenoxy)-ethyl!amino!propyl!-2-methoxybenzenesulfonamide] as the molecule, how does the reduction of contraction [2] read?
Its reduction of contraction is “reduces the contraction”.

And the reduction of contraction [3]?
The reduction of contraction was “reduces the contraction”.

And the reduction of contraction [4]?
The reduction of contraction was “reduces the contraction”.

Which results are given for `COc1cc2nc(N(C)CCCNC(=O)[C@H]3CCCO3)nc(N)c2cc1OC` [R enantiomer]?
potency in antagonizing phenylephrine induced contraction (R vs S enantiomer) [5]: equally potent; potency in antagonizing phenylephrine induced contraction (R vs S enantiomer) (rabbit trigone): equally potent

With `COc1cc2nc(N3CCN(C(=O)c4ccco4)CC3)nc(N)c2cc1OC` [Prazosin, reference compound] as the molecule, how does the “most common side effect” value [6] read?
The value was “hypotension”.

Which results are given for `COc1ccccc1N1CCN(CCCNC(=O)c2cccc3c(=O)c(C)c(-c4ccccc4)oc23)CC1` [Rec 15/2739, 8(3-4-(2-methoxyphenyl)-1-piperazinyl!-propylcarbamoyl)-3-methyl-4-oxo-2-phenyl-4H-1-benzopyran]?
solubility ([7]; aqueous buffer, PBS pH 5.2): 68 µg/mL (≈ 133 µM); solubility ([7]; aqueous buffer, PBS pH 6.7): 5.2 µg/mL (≈ 10.2 µM); solubility ([7]; saline): 1.5 µg/mL (≈ 2.93 µM); selectivity for lower urinary tract (urethral contractions vs lowering blood pressure) [8]: substantially more active in antagonizing urethral contractions than in lowering blood pressure; pKa ([1]; read-out: pKa): 7; antagonistic effects against contractions induced by potassium chloride (rat bladder strip): demonstrate antagonistic effects against contractions of rat bladder strip induced by potassium chloride; affinity and selectivity for alpha1 adrenergic receptors [9]: has affinity and selectivity for the alpha1 adrenergic receptors; toxicity [6]: low toxicity

With `COc1cc2nc(N(C)CCCNC(=O)C3CCCO3)nc(N)c2cc1OC` (stereo not drawn) [Alfuzosin, N-3-(4-Amino-6,7dimethoxy-2-quinazolinyl) methylamino!propyl!tetrahydro-2-furancarboxamide] as the molecule, how does the plasma half life ([10]; S. Lieto di Priolo et al.) read?
The plasma half life was 4 to 9 h.

What about the mean oral bioavailability ([10]; oral, Wilde et al.) of the same molecule?
Its mean oral bioavailability is 64%.

What about the “selectivity for alpha1 subtypes” value [11] of the same molecule?
Its value is “lacks any relevant selectivity for alpha1 subtypes”.

What about the “activity in altering phenylephrine induced contractions” value [12] of the same molecule?
Its value is “shows activity in altering the phenylephrine induced contractions”.

Which “potency in antagonizing phenylephrine induced contraction (R vs S enantiomer)” value [5] does the source give for `COc1cc2nc(N(C)CCCNC(=O)[C@@H]3CCCO3)nc(N)c2cc1OC` [S enantiomer] here?
Its value is “equally potent”.

What about the “potency in antagonizing phenylephrine induced contraction (R vs S enantiomer)” value (rabbit trigone) of the same molecule?
Its value is “equally potent”.

Reference: patent US5503843A, “Transdermal delivery of alpha adrenoceptor blocking agents” (priority 1994, dated 1996)
